Laboratory results from patent US12544348B2, “Methods for treating APOE4/4-associated disorders” (The Regents of the University of California, priority 2018, dated 2026).

Test system: hippocampal slices from apoE4-KI mice
Assay: Brain slice electrophysiological recordings (LTP, input-output) after in vivo treatment
Details: 0.2 mg/kg for 8 weeks
Excerpt: Brain slice electrophysiological recordings and data analyses. For long-term potentiation (LTP) recording study, apoE4-KI mice were randomly allocated to vehicle (n=6, age 15.2±0.56 months) and bumetanide (n=3, age 15.1±0.06) treatment groups. ApoE3-KI mice were similarly allocated into vehicle (n=6, age 15.5±0.11) and bumetanide (n-3, age 15.57±0.19) treatment groups. For input/output recording study, apoE4-KI mice were randomly allocated to vehicle (n=3, age 15.1±0.06 months) and bumetanide (n=3, age 15.1±0.06) treatment groups. ApoE3-KI mice were similarly allocated into vehicle (n=7, age 15.3±0.06) and bumetanide (n=3, age 15.57±0.29) treatment groups. […]
Field post-synaptic potentials (fPSPs) were elicited by orthodromic stimulation of Schaffer collaterals by concentric bipolar stimulating electrode (FHC, Inc., USA) connected to a constant voltage isolated stimulator (DS2A-MKII, Digitimer North America) and placed in CA2 stratum radiatum. fPSPs were recorded with a glass borosilicate microelectrode filled with ACSF and placed in CA1 stratum radiatum. Signals were sampled and digitized by MultiClamp 700B amplifier and Digidata 1550B1 acquisition system with pClamp10 software (Molecular Devices, USA), and analyzed using IgorPro6 software (Wavemetrics Inc., USA) running custom macros. fPSP slopes were analyzed as the linear fit slope values between 10% and 90% of fPSP peak. […]

## CCCCNc1cc(C(=O)O)cc(S(N)(=O)=O)c1Oc1ccccc1 [bumetanide, 3-(butylamino)-4-phenoxy-5-sulfamoylbenzoic acid]
Aged (16-month-old) apoE4-KI mice, theta burst stimulation
  long-term potentiation (LTP) in CA1 region of hippocampal slices: completely rescued LTP deficit
Aged apoE4-KI mice
  neuronal hyperexcitability in CA1 region (input-output curve analysis): normalized
